Test results: ChEMBL document CHEMBL3507680, “University of Dundee, Gates Library screen for HepG2 cell viability”

Experiment: Human HepG2 cell viability assay in 384 well format
Type: toxicity, cell-based
Set-up: dose 125 nL, time 70.5 hour; cytotoxicity at 70.5 h: concentration not given beside the values
Conditions: HepG2 cells, read-out: Inhibition

Cc1nnc(N(CCC#N)CCC#N)s1
cytotoxicity at 70.5 h: -5.52%

CCOc1c(Br)cc(C2C3=C(COC3=O)Nc3[nH]nc(C)c32)cc1OC (configuration not stated)
cytotoxicity at 70.5 h: 29.2%

CN(C)C(=O)N1CCCC2(CCN(Cc3ccncc3)C2)C1 (configuration not stated)
cytotoxicity at 70.5 h: -7.12%

CC(C)N1CCO[C@H]2CN(S(=O)(=O)c3ccc(C#N)cc3)C[C@H]21
cytotoxicity at 70.5 h: -11.6%

CC1=N[C@@]2(CC[C@@H]3CN(CC(C)C)C[C@@H]32)C(=O)N1
cytotoxicity at 70.5 h: -4.43%

CN(C)C(=O)c1nc2c(s1)CCCN2Cc1ccccc1
cytotoxicity at 70.5 h: -7.89%

CC(=O)N1CCCC2(CCN(Cc3ccc(Cl)c(C(F)(F)F)c3)C2)C1 (configuration not stated)
cytotoxicity at 70.5 h: -5.69%

CC(C)NC(=O)c1nc2c(s1)CCCN2Cc1ccccc1
cytotoxicity at 70.5 h: -6.15%

O=S(=O)(C1CC1)N1CCOC2(CCCN(c3cccc(F)c3)C2)C1 (configuration not stated)
cytotoxicity at 70.5 h: -3.57%

CN(C)C(=O)CN1CCO[C@H]2CN(c3ccccn3)C[C@H]21
cytotoxicity at 70.5 h: -3.6%

CCS(=O)(=O)N1CCC2(CCCN(c3ncc(F)cn3)C2)C1 (configuration not stated)
cytotoxicity at 70.5 h: -6.13%

O=C(Cc1ccccn1)N1CCC2(CC1)CN(c1ccccn1)CCO2
cytotoxicity at 70.5 h: -6.92%

CCS(=O)(=O)N1CCC2(CN(C(=O)c3cscn3)C2)C1
cytotoxicity at 70.5 h: -3.48%

Cc1ccc(C(=O)N2C[C@@H]3CN(c4ncccn4)C[C@@H]3C2)cc1
cytotoxicity at 70.5 h: -4.94%

COCCC(=O)N1CC2(CCN(c3ccccc3)C2)C1
cytotoxicity at 70.5 h: 3.88%

Cc1cccc(N2CCCC3(C2)CN(S(C)(=O)=O)CCO3)c1 (configuration not stated)
cytotoxicity at 70.5 h: -4.48%

COCCN1C(=O)CC[C@@H]2[C@H]1CCN2C(=O)C1CCOCC1
cytotoxicity at 70.5 h: -7.67%

Cc1cccc(Cl)c1NC(=O)Cn1cc(C(=O)O)ccc1=O
cytotoxicity at 70.5 h: -2.75%

O=C(Cn1cc(C(=O)O)ccc1=O)NCc1ccc(F)cc1Cl
cytotoxicity at 70.5 h: 5.89%

O=C(Cn1cc(C(=O)O)ccc1=O)Nc1cc(F)ccc1F
cytotoxicity at 70.5 h: -9.56%

COc1cccc(C2C3=C(COC3=O)Nc3[nH]nc(C)c32)c1OC (configuration not stated)
cytotoxicity at 70.5 h: -3.26%

CCN(CC)c1ccc(C2C3=C(COC3=O)Nc3[nH]nc(C)c32)cc1 (configuration not stated)
cytotoxicity at 70.5 h: -4.13%

O=C1CC(c2ccc(F)cc2)Cc2[nH]c(=O)c(C(=O)O)cc21 (configuration not stated)
cytotoxicity at 70.5 h: -8.55%

O=C1N(c2ccc(Cl)cc2)Cc2nc(=O)[nH]n21
cytotoxicity at 70.5 h: -11.3%

O=C1N(c2cccc(F)c2)Cc2nc(=O)[nH]n21
cytotoxicity at 70.5 h: -7.69%

COc1cccc(C2SCC(=O)Nc3ccsc32)c1 (configuration not stated)
cytotoxicity at 70.5 h: 0.777%

O=C1CC(c2ccc(C(=O)O)cc2)c2ncn(-c3ccc(Cl)cc3)c2N1 (configuration not stated)
cytotoxicity at 70.5 h: -13%

O=C1CC(c2ccc(C(=O)O)cc2)c2ncn(-c3ccccc3Cl)c2N1 (configuration not stated)
cytotoxicity at 70.5 h: -12.6%

COc1cccc(N2Cc3nc(=O)[nH]n3C2=O)c1
cytotoxicity at 70.5 h: -16.5%

CC1CCc2nc(O)c(C(=O)NCc3ccncc3)cc2C1 (configuration not stated)
cytotoxicity at 70.5 h: 5.88%

CC1CCc2nc(O)c(C(=O)NCc3ccccc3F)cc2C1 (configuration not stated)
cytotoxicity at 70.5 h: 7.1%

COc1ccc(CNC(=O)c2cc3c(nc2O)CCC(C)C3)cc1 (configuration not stated)
cytotoxicity at 70.5 h: -8.97%

COC(=O)c1ccc(C2SCC(=O)Nc3ccsc32)cc1 (configuration not stated)
cytotoxicity at 70.5 h: -8.05%

O=C1CSC(c2ccc(O)cc2)c2sccc2N1 (configuration not stated)
cytotoxicity at 70.5 h: 3%

O=C1CC(c2cccs2)Cc2nc(O)c(C(=O)N3CCCC3)cc21 (configuration not stated)
cytotoxicity at 70.5 h: -4.55%

CCOc1ccc(-n2ccc3nc(N4CCCC4)ncc3c2=O)cc1
cytotoxicity at 70.5 h: -2.37%

O=c1c2cnc(N3CCCCC3)nc2ccn1-c1ccccc1F
cytotoxicity at 70.5 h: 8.21%

Cc1ccccc1-n1ccc2nc(N3CCCC3)ncc2c1=O
cytotoxicity at 70.5 h: -13.6%

Cc1c(C)n(CC(O)CN2CCCCCC2)c2c(Cl)cccc12 (configuration not stated)
cytotoxicity at 70.5 h: 20.5%

CN1N=C(C(=O)N2CCCCC2)S(=O)(=O)c2ccccc21
cytotoxicity at 70.5 h: 1.74%

CSc1nc2cc(C)n(CC(N)=O)c2c(=O)n1CC(C)C
cytotoxicity at 70.5 h: 0.849%

O=c1[nH]c2nc(NCC3CCCO3)ncc2c(=O)n1-c1ccc(F)cc1 (configuration not stated)
cytotoxicity at 70.5 h: 1.97%

CCc1noc(-c2ccc(SCC(=O)O)nc2)n1
cytotoxicity at 70.5 h: 13.8%

COc1ccc(NC(=O)c2cnc(N(C)C3CCCCC3)nc2N)cc1
cytotoxicity at 70.5 h: 2.82%

COc1ccc(Cn2c(=O)n(C)c(=O)c3sccc32)cc1
cytotoxicity at 70.5 h: 3.39%

COCCc1noc(-c2ccc(=O)[nH]c2)n1
cytotoxicity at 70.5 h: 2.52%

Cc1cccc(N2CCN(c3ccn4c(=O)[nH]nc4n3)CC2)c1C
cytotoxicity at 70.5 h: 3.43%

COC(=O)c1sc2nc3c(c(C(F)(F)F)c2c1N)CN(C(C)=O)CC3
cytotoxicity at 70.5 h: 5.62%

CSc1ccc(C2CC(=O)Nc3c2c(=O)[nH]c2ncnn32)cc1 (configuration not stated)
cytotoxicity at 70.5 h: 6.12%

O=C(O)c1ccc2[nH]cc(CN3CCCC3)c2c1
cytotoxicity at 70.5 h: 6.43%

COc1ccc(-c2cnc(NC(C)=O)[nH]2)cc1
cytotoxicity at 70.5 h: 10.1%

CC(=O)c1sc2nc3c(c(C(F)(F)F)c2c1N)CN(C(C)=O)CC3
cytotoxicity at 70.5 h: 8.25%

O=C1CC(C2CCCCC2)c2c(n(C3CCCC3)[nH]c2=O)N1 (configuration not stated)
cytotoxicity at 70.5 h: 2.99%

CCOCCNS(=O)(=O)c1ccc2c3c1CCCN3C(=O)CO2
cytotoxicity at 70.5 h: 33.6%

O=C1COc2ccc(S(=O)(=O)NCC3CCCO3)c3c2N1CCC3 (configuration not stated)
cytotoxicity at 70.5 h: 1.71%

O=C1COc2ccc(S(=O)(=O)NCc3ccccc3)c3c2N1CCC3
cytotoxicity at 70.5 h: 4.09%

Cc1cc(NCCO)nc(N2CCN(C)CC2)c1C#N
cytotoxicity at 70.5 h: 1.33%
